Test results taken from patent US20090075987A1, “ALKYLACETYLENE SUBSTITUTED ACYLTRYPTOPHANOLS” (priority 2007, published 2009).

molecular target: T1, human FSH receptor (Homo sapiens, UniProt P23945); test: HTRF assay for measuring cAMP in cells; type: cell-based; conditions: hFSHR clone 16 cells (CHO cells stably transfected with the human FSH receptor); in the presence of 1e-9 mol/l hFSH; 37° C. for 2 h; read-out: IC50 (FSH-antagonistic effect in the HTRF assay)
T1 construct: expressed in transfected cells; host or cells: CHO cells (hFSHR clone 16)
T1 sequence (P23945 18-695): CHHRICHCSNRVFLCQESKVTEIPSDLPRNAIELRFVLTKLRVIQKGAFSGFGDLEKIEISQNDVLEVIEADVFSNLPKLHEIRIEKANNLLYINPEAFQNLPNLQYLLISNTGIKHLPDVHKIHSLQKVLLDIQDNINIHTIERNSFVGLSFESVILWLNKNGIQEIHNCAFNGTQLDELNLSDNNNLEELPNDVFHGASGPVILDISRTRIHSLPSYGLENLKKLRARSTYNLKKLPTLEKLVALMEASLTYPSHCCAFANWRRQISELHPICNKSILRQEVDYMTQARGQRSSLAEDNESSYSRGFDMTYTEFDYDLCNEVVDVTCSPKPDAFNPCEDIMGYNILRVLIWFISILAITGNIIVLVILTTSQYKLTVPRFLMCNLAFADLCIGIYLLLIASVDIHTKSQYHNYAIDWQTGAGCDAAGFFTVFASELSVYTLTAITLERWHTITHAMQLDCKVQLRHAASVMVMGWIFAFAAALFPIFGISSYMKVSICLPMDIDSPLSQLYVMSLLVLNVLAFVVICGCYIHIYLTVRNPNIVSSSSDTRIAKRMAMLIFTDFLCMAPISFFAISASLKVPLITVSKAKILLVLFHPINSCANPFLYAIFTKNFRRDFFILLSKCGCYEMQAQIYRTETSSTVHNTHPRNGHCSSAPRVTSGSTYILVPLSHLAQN
Experimental: HTRF Assay for Measuring cAMP in Cells
The method is based on a competitive immunoassay between native cAMP, which has been produced by the cells, and cAMP which is labelled with XL665. The tracer binding was visualized by a monoclonal antibody, anti-cAMP labelled with cryptate [HTRF=homogeneous time-resolved fluorescence].
The specific signal is inversely proportional to the cAMP concentration of the samples employed.
The 665 nm/620 nm fluorescence ratio was evaluated.
The following material was used: 96-well plates for the tissue culture, 96-well plates with black edge and black base (e.g. Fluotrac 600 from Greiner), 96-well plates for the substance dilutions of polypropylene and cAMP Femtomolar (4000 wells Kit, CIS Bio International # 62AM1PEC).
The following reagents were used: BSA (bovine serum albumin) Fraction V protease-free, IBMX (3-isobutyl-1-methylxanthine), hFSH (human follicle stimulating hormone), Triton X-100 analytical grade, potassium fluoride analytical grade, G 418 (Geneticin) and Accutase.
Buffer 1 (washing and testing buffer) contained PBS, 1 mM CaCl2, 1 mM MgCl2, 0.2% glucose; 0.1% BSA, 1 mM IBMX. Buffer 2 (2× lysis buffer) contained 1% Triton X-100 in PBS (without CaCl2 and MgCl2). Buffer 3 (assay buffer) contained 50 mM potassium phosphate buffer (pH 7.0); 800 mM potassium fluoride; 0.2% BSA (always added fresh).
On day 1, the cells were seeded in 96-well plates (3×10^4 cells per well hFSHR clone 16 cells (CHO cells stably transfected with the human FSH receptor in 150 μl of medium). The next day, test substance dilutions were made up. For this purpose, all the substances were diluted in ice-cold buffer 1 (with or without hFSH), and the substance dilutions were placed on ice until applied to the cells.
The cell supernatant was then aspirated off, and the cells were washed 2× with 200 μl of buffer 1. The cells were treated with 60 μl of the appropriate substance concentrations at 37° C. for 2 h. The cells were then lysed with 60 μl of buffer 2 (put onto the supernatant) (on a plate shaker at RT for 30 min).
The test conjugates (XL-665 and anti-cAMP cryptate) were diluted in buffer 3 in accordance with the manufacturers' information. The actual mixture for measurement was pipetted into a black 96-well plate (in each case 15 μl of the cell lysate diluted with 35 μl of buffer 1; firstly 25 μl of XL-665 conjugate were pipetted and, after 10 min, 25 μl of the anti-cAMP cryptate were added). This is followed by incubation at RT for 90 minutes. The measurement was carried out in a PheraStar (BMG).
Tissue Culture Conditions
1) hFSHr clone 16 Ham's F12 • PSG • 10% FCS • 700 μg/ml G 418 (Geneticin) from PAA.
Dose-effect curve (hFSH) for the human receptor: 1e-8, 3e-9, 1e-9, 3e-10, 1e-10, 3e-11, 1e-11, 3e-12 mol/l.
The test substances were employed in suitable dilutions in the absence (test for agonism) and in the presence of 1e-9 mol/l hFSH.
The values of the well ratio were averaged and then entered directly in SigmaPlot versus the concentrations. The maximum and minimum values were determined for each plate, and half the difference is to be regarded as IC50.

IC50 [nM] | Structure (SMILES)
600 | CC(C)Oc1ccc(C#CC(C)(C)C)cc1C(=O)N[C@@H](CO)Cc1c[nH]c2ccccc12 [Example 3, 5-(3,3-Dimethyl-but-1-ynyl)-N-[(R)-1-hydroxy-methyl-2-(1H-indol-3-yl)-ethyl]-2-isopropoxy-benzamide]
4500 | CC(C)Oc1ccc(C#CCN2CCS(=O)(=O)CC2)cc1C(=O)N[C@@H](CO)Cc1c[nH]c2ccccc12 [Example 5, 5-[3-(1,1-Dioxo-1-lambda*6*-thiomorpho-lin-4-yl)-prop-1-ynyl]-N-[(R)-2-hydroxy-1-(1H-indol-3-ylmethyl)-ethyl]-2-isopropoxy-benzamide]
200 | Cc1ccc(NC(=O)NCC#Cc2ccc(OC(C)C)c(C(=O)N[C@@H](CO)Cc3c[nH]c4ccccc34)c2)cc1 [Example 7, N-[(R)-1-Hydroxy-methyl-2-(1H-indol-3-yl)-ethyl]-2-isopropoxy-5-[3-(3-p-tolyl-ureido)-prop-1-ynyl]-benzamide]
500 | CC(C)Oc1ccc(C#CCCCO)cc1C(=O)N[C@@H](CO)Cc1c[nH]c2ccccc12 [Example 8, N-[(R)-1-Hydroxy-methyl-2-(1H-indol-3-yl)-ethyl]-5-(5-hydroxy-pent-1-ynyl)-2-iso-propoxy-benzamide]
6000 | CNC(=O)N(C)CC#Cc1ccc(OC(C)C)c(C(=O)N[C@@H](CO)Cc2c[nH]c3ccccc23)c1 [Example 10, 5-[3-(1,3-Dimethyl-ureido)-prop-1-ynyl]-N-[(R)-1-hydroxymethyl-2-(1H-indol-3-yl)-ethyl]-2-isopropoxy-benzamide]
